Experimental data: patent US11306124B2, “Agonist agents of CD47 inducing programmed cell death and their use in the treatments of diseases associated with defects in programmed cell death” (SORBONNE UNIVERSITE, priority 2016, dated 2022)
Like-named read-outs stand apart in the source and are kept apart here. Residues, ends and D or L forms follow the SMILES beside them.

Columns and labels:
[1] = tested on: HCT-116 cells; assay type: cell-based, human; details: for Viable, Mean (%): human; for Viable, Mean (%) / Early Apoptosis, Mean (%) / Late apoptosis, Mean (%): 2 h; for Early Apoptosis, Mean (%) / Late apoptosis, Mean (%): HCT-116 cells
Procedure: 2.2.2. Cell Death Analysis by Flow Cytometry
To detect possible apoptotic processes, cells were seeded in 35 mm dishes and cultured in media containing each tested cyclic peptide for 2 hours following procedure A or B.
Procedure B: Peptides were incubated for 2 hours on HCT-116 cells. Superkiller Trail (ALX-201-115C-010) was used as a positive pro-apoptotic control. Cells were analyzed by cytofluorometry using FITC Annexin V apoptosis detection kit with 7-AAD from BIOLEGEND (BLE640922).

[2] = tested on: MCF-7, HCT-116, BxPC3 and A549 cancer cells; assay: Cell viability and proliferation of tumor cells (cytotoxic assay and direct cell counting); assay type: cell-based, human; details: for efficiency in inducing cell death on cancer cell lines: MCF-7, HCT-116, BxPC3, A549; for viability in all cell strains: 2 hours, 10 to 50 μM peptide concentration
Procedure: The effects of several cyclic peptides of the invention on the proliferation of tumor cells were evaluated on 5 cell lines (MCF-7, human breast cancer cells; HCT-116, human colon cancer cells; BxPC3, human pancreas cancer cells and A549, human lung cancer cells) by cytotoxic assay and by counting directly the number of cells.
Those cyclic peptides were dissolved in DMSO at the following concentrations: 0, 5, 10, 25, 50 and 100 μM.
Culture media used for these assays are: EMEM=10% SVF for MCF-7 and Wi38; RPMI […] SVF for HCT-116 and BxPC3 and F-12K=10% SVF for A549.
500 cells were seeded in 96-well plates, incubated at 37° C. for 24 hours, and treated by the cyclic peptides at the different concentrations and controls for 2 h.

[3] = peptide concentration 12.5 (μM)

Molecule	Viable, Mean (%) ([1]; 12.5 μM)	Viable, Mean (%) ([1]; 25 μM)	Viable, Mean (%) ([1]; 50 μM)	viability in all cell strains [2]	other results
CSCC[C@@H]1NC(=O)[C@@H](C(C)C)NC(=O)[C@H](C(C)C)NC(=O)[C@H](Cc2ccc(O)cc2)NC(=O)[C@H](Cc2ccccc2)NC(=O)[C@H](CCCNC(=N)N)N(C)C(=O)[C@H](CO)NC(=O)[C@H](CO)NC(=O)[C@H](CC(N)=O)NC(=O)[C@H](C(C)C)NC(=O)[C@H](C(C)C)NC(=O)[C@H](CCCCN)NC(=O)[C@H](C(C)C)NC(=O)[C@H](CO)NC(=O)[C@H](CC(C)C)NC(=O)CNC(=O)[C@@H]2CCCN2C(=O)[C@H]2CCCN2C(=O)[C@H](CCCCN)NC(=O)[C@H](Cc2c[nH]c3ccccc23)NC1=O (relative stereo) [PKTD10-RNMe, —S—R*—F—Y—V—V—M—W—K—p—P—G—L—S—V—K—V—V—N—S— R* = RNMe]	91.72	91.10	76.73	–	–
CCCC[C@@H]1NC(=O)[C@@H](C(C)C)NC(=O)[C@H](C(C)C)NC(=O)[C@H](Cc2ccc(O)cc2)NC(=O)[C@H](Cc2ccccc2)NC(=O)[C@H](CCCNC(=N)N)N(C)C(=O)[C@H](CO)NC(=O)[C@H](CO)NC(=O)[C@H](CC(N)=O)NC(=O)[C@H](C(C)C)NC(=O)[C@H](C(C)C)NC(=O)[C@H](CCCCN)NC(=O)[C@H](C(C)C)NC(=O)[C@H](CO)NC(=O)[C@H](CC(C)C)NC(=O)CNC(=O)[C@@H]2CCCN2C(=O)[C@H]2CCCN2C(=O)[C@H](CCCCN)NC(=O)[C@H](Cc2c[nH]c3ccccc23)NC1=O (relative stereo) [PKTD10-X-RNMe, —S—R*—F—Y—V—V—X—W—K—p—P—G—L—S—V—K—V—V—N—S— R* = RNMe and X = NLe]	82.76	75.17	48.31	–	–
CSCC[C@@H]1NC(=O)[C@H](C(C)C)NC(=O)[C@H](C(C)C)NC(=O)[C@H](Cc2ccc(O)cc2)NC(=O)[C@H](Cc2ccccc2)NC(=O)[C@H](CCCNC(=N)N)N(C)C(=O)[C@H](CO)NC(=O)[C@H](CO)NC(=O)[C@H](CC(N)=O)NC(=O)[C@H](C(C)C)NC(=O)[C@H](C(C)C)NC(=O)[C@H](CCCCN)NC(=O)[C@H](C(C)C)NC(=O)[C@H](CO)NC(=O)[C@H](CC(C)C)NC(=O)CNC(=O)[C@H](CO)NC(=O)[C@@H]2CCCN2C(=O)[C@H]2CCCN2C(=O)[C@H](CCC(N)=O)NC(=O)[C@H](CCCCN)NC(=O)[C@H](Cc2c[nH]c3ccccc23)NC1=O (relative stereo) [PKTD11RNMe, —S—R*—F—Y—V—V—M—W—K—Q—p—P—S—G—L—S—V—K—V—V—N—S— R* = RNMe]	88.71	86.38	67.03	–	–
CSCC[C@@H]1NC(=O)[C@H](C(C)C)NC(=O)[C@H](C(C)C)NC(=O)[C@H](Cc2ccc(O)cc2)NC(=O)[C@H](Cc2ccccc2)NC(=O)[C@H](CCCNC(=N)N)NC(=O)[C@H](CCCCN)NC(=O)[C@H](Cc2c[nH]c3ccccc23)NC1=O [PKC1, reference compound]	92.95	92.72	92.15	–	Early Apoptosis, Mean (%) [1, 3]: 4.54%; Late apoptosis, Mean (%) [1, 3]: 2.25%; Early Apoptosis, Mean (%) ([1]; peptide concentration 25 (μM)): 4.55%; Late apoptosis, Mean (%) ([1]; peptide concentration 25 (μM)): 2.56%; Early Apoptosis, Mean (%) ([1]; peptide concentration 50 (μM)): 4.98%; Late apoptosis, Mean (%) ([1]; peptide concentration 50 (μM)): 2.75%; efficacy in triggering PCD ([1]; from 12.5 to 50 μM): no efficacy; efficiency in inducing cell death on cancer cell lines [2]: no potency in inducing cell death
CC(C)C[C@@H]1NC(=O)[C@@H]2CCCN2C(=O)[C@H]2CCCN2C(=O)[C@H](Cc2c[nH]c3ccccc23)NC(=O)[C@H](CCCCN)NC(=O)[C@H](C(C)C)NC(=O)[C@H](C(C)C)NC(=O)[C@H](Cc2ccccc2)NC(=O)[C@H](Cc2ccccc2)NC(=O)[C@H](C(C)C)NC(=O)[C@H](C(C)C)NC(=O)[C@H](CCCCN)NC(=O)[C@H](C(C)C)NC(=O)[C@H](CO)NC1=O [PKD10-FF, —F—F—V—V—K—W—p—P—L—S—V—K—V—V—] (HELM PEPTIDE1{F.F.V.V.K.W.[dP].P.L.S.V.K.V.V}$PEPTIDE1,PEPTIDE1,1:R1-14:R2$$$V2.0)	25.225	30.445	31.97	–	–
CC[C@H](C)[C@@H]1NC(=O)CNC(=O)[C@@H]2CCCN2C(=O)[C@H]2CCCN2C(=O)[C@H](CCCCN)NC(=O)[C@H](Cc2c[nH]c3ccccc23)NC(=O)[C@H](CCSC)NC(=O)[C@H](C(C)C)NC(=O)[C@H](C(C)C)NC(=O)[C@H](Cc2ccc(O)cc2)NC(=O)[C@H](Cc2ccccc2)NC(=O)[C@H](CCCNC(=N)N)NC(=O)[C@H](CO)NC(=O)[C@H](CO)NC(=O)[C@H](CCCCN)NC(=O)[C@H](C(C)C)NC(=O)[C@H](C(C)C)NC(=O)[C@H](CCCCN)NC(=O)[C@H](C(C)C)NC(=O)[C@H](CO)NC1=O [PKTD1, —S—R—F—Y—V—V—M—W—K—p—P—G—I—S—V—K—V—V—K—S—] (HELM PEPTIDE1{G.I.S.V.K.V.V.K.S.S.R.F.Y.V.V.M.W.K.[dP].P}$PEPTIDE1,PEPTIDE1,1:R1-20:R2$$$V2.0)	76.44	63.51	37.56	–	–
CC[C@@H](C)[C@@H]1NC(=O)CNC(=O)[C@@H]2CCCN2C(=O)[C@H]2CCCN2C(=O)[C@H](CCCCN)NC(=O)[C@H](Cc2c[nH]c3ccccc23)NC(=O)[C@H](CCSC)NC(=O)[C@@H](C(C)C)NC(=O)[C@H](C(C)C)NC(=O)[C@H](Cc2ccc(O)cc2)NC(=O)[C@H](Cc2ccccc2)NC(=O)[C@H](CCCNC(=N)N)NC(=O)C(CC(N)=O)NC(=O)[C@H](C(C)C)NC(=O)[C@H](C(C)C)NC(=O)[C@H](CCCCN)NC(=O)[C@H](C(C)C)NC(=O)[C@H](CO)NC1=O (some centres unmarked) [PKTD7, —R—F—Y—V—V—M—W—K—p—P—G—I—S—V—K—V—V—N—] (HELM PEPTIDE1{G.[CC[C@@H](C)[C@H](N[*:1])C(=O)[*:2]].S.V.K.V.V.[NC(=O)CC(N[*:1])C(=O)[*:2]].R.F.Y.V.[dV].M.W.K.[dP].P}$PEPTIDE1,PEPTIDE1,1:R1-18:R2$$$V2.0)	–	–	–	dose-dependent viability decrease	efficiency in inducing cell death on cancer cell lines [2]: efficient in inducing cell death
CSCC[C@@H]1NC(=O)[C@H](C(C)C)NC(=O)[C@H](C(C)C)NC(=O)[C@H](Cc2ccc(O)cc2)NC(=O)[C@H](Cc2ccccc2)NC(=O)[C@H](CCCNC(=N)N)NC(=O)[C@H](CO)NC(=O)[C@H](CO)NC(=O)[C@H](CC(N)=O)NC(=O)[C@H](C(C)C)NC(=O)[C@H](C(C)C)NC(=O)[C@H](CCCCN)NC(=O)[C@H](C(C)C)NC(=O)[C@H](C)NC(=O)[C@H](CC(C)C)NC(=O)CNC(=O)[C@@H]2CCCN2C(=O)[C@H]2CCCN2C(=O)[C@H](CCCCN)NC(=O)[C@H](Cc2c[nH]c3ccccc23)NC1=O [PKTD10-3, —S—R—F—Y—V—V—M—W—K—p—P—G—L—A—V—K—V—V—N—S—] (HELM PEPTIDE1{S.R.F.Y.V.V.M.W.K.[dP].P.G.L.A.V.K.V.V.N.S}$PEPTIDE1,PEPTIDE1,1:R1-20:R2$$$V2.0)	86.83	79.30	79.67	dose-dependent viability decrease	Early Apoptosis, Mean (%) [1, 3]: 8.17%; Late apoptosis, Mean (%) [1, 3]: 4.35%; Early Apoptosis, Mean (%) ([1]; peptide concentration 25 (μM)): 13.16%; Late apoptosis, Mean (%) ([1]; peptide concentration 25 (μM)): 7.06%; Early Apoptosis, Mean (%) ([1]; peptide concentration 50 (μM)): 13.13%; Late apoptosis, Mean (%) ([1]; peptide concentration 50 (μM)): 6.85%
CSCC[C@@H]1NC(=O)[C@@H](C(C)C)NC(=O)[C@H](C(C)C)NC(=O)[C@H](Cc2ccc(O)cc2)NC(=O)[C@H](Cc2ccccc2)NC(=O)[C@H](CCCNC(=N)N)NC(=O)[C@H](CO)NC(=O)CNC(=O)[C@H](CC(N)=O)NC(=O)[C@H](C(C)C)NC(=O)[C@H](C(C)C)NC(=O)[C@H](CCCCN)NC(=O)[C@H](C(C)C)NC(=O)[C@H](CO)NC(=O)[C@H](CC(C)C)NC(=O)CNC(=O)[C@@H]2CCCN2C(=O)[C@H]2CCCN2C(=O)[C@H](CCCCN)NC(=O)[C@H](Cc2c[nH]c3ccccc23)NC1=O [PKTD18, —S—R—F—Y—V—V—M—W—K—p—P—G—L—S—V—K—V—V—N—G—] (HELM PEPTIDE1{S.R.F.Y.V.[dV].M.W.K.[dP].P.G.L.S.V.K.V.V.N.G}$PEPTIDE1,PEPTIDE1,1:R1-20:R2$$$V2.0)	82.45	75.12	67.48	–	–
—S—R—F—Y—V—V—M—W—K—Q—p—P—S—G—L—S—V—K—V—V—N—S— [PKTD11]	–	–	–	dose-dependent viability decrease	efficiency in inducing cell death on cancer cell lines [2]: efficient in inducing cell death
—S—R—F—Y—V—V—M—W—K—p—P—S—R—F—Y—V—V—M—W—K— (SRFYVVMWKPPSRFYVVMWK; HELM PEPTIDE1{S.R.F.Y.V.V.M.W.K.[dP].P.S.R.F.Y.V.V.M.W.K}$PEPTIDE1,PEPTIDE1,1:R1-20:R2$$$V2.0; SMILES CSCC[C@@H]1NC(=O)[C@H](C(C)C)NC(=O)[C@H](C(C)C)NC(=O)[C@H](Cc2ccc(O)cc2)NC(=O)[C@H](Cc2ccccc2)NC(=O)[C@H](CCCNC(=N)N)NC(=O)[C@H](CO)NC(=O)[C@@H]2CCCN2C(=O)[C@H]2CCCN2C(=O)[C@H](CCCCN)NC(=O)[C@H](Cc2c[nH]c3ccccc23)NC(=O)[C@H](CCSC)NC(=O)[C@H](C(C)C)NC(=O)[C@H](C(C)C)NC(=O)[C@H](Cc2ccc(O)cc2)NC(=O)[C@H](Cc2ccccc2)NC(=O)[C@H](CCCNC(=N)N)NC(=O)[C@H](CO)NC(=O)[C@H](CCCCN)NC(=O)[C@H](Cc2c[nH]c3ccccc23)NC1=O; listed as Homo sapiens) [PKTD16]	–	–	–	dose-dependent viability decrease	–
